Laboratory results: patent publication US20220274954A1, “SUBSTITUTED N-PHENYL-N-AMINOUARCILS AND SALTS THEREOF AND USE THEREOF AS HERBICIDAL AGENTS” (Bayer Aktiengesellschaft, priority 2019, published 2022)

Key:
Type in all cases: in vivo
Abutilon theophrasti = experiment: Post-emergence herbicidal action; details: for pest or weed control at 5 g/ha / pest or weed control at 20 g/ha: Abutilon theophrasti, 504 h, read-out: Abutilon theophrasti (efficacy in %)
Procedure: (§1) Seeds of monocotyledonous and dicotyledonous weeds and crop plants were placed in sandy loam in plastic or wood-fiber pots, covered with soil and cultivated in a greenhouse under controlled growth conditions. 2 to 3 weeks after sowing, the test plants were treated at the one-leaf stage. The compounds of the invention, formulated in the form of wettable powders (WP) or as emulsion concentrates (EC), were then sprayed onto the green parts of the plants as aqueous suspension or emulsion with addition of 0.5% additive at a water application rate of […] (converted). After the test plants had been kept in the greenhouse under optimum growth conditions for about 3 weeks, the activity of the preparations was rated visually in comparison to untreated controls. For example, 100% activity=the plants have died, 0% activity=like control plants. Tables A1 to A14 below show the effects of selected compounds of the general formula (I) according to Tables I.1 to I.34 on various harmful plants and at an application rate corresponding to 20 g/ha and less, which were obtained by the experimental procedure mentioned above.

Alopecurus myosuroides = experiment: Post-emergence herbicidal action
Procedure: as §1

Amaranthus retroflexus = experiment: Post-emergence herbicidal action; details: for pest or weed control at 5 g/ha / pest or weed control at 20 g/ha: Amaranthus retroflexus, 504 h, read-out: Amaranthus retroflexus (efficacy in %)
Procedure: as §1

Digitaria sanguinalis = experiment: Post-emergence herbicidal action; details: 504 h, read-out: Digitaria sanguinalis (efficacy in %); for pest or weed control at 20 g/ha: application rate 20 g/ha
Procedure: as §1

Echinochloa crus-galli = experiment: Post-emergence herbicidal action; details: for pest or weed control at 5 g/ha / pest or weed control at 20 g/ha: Echinochloa crus-galli, 504 h, read-out: Echinochloa crus-galli (efficacy in %)
Procedure: as §1

Matricaria inodora = experiment: Post-emergence herbicidal action; details: for pest or weed control at 5 g/ha / pest or weed control at 20 g/ha: Tripleurospermum inodorum, 504 h, read-out: Matricaria inodora (efficacy in %); for pest or weed control at 5 g/ha: application rate 5 g/ha
Procedure: as §1

Pharbitis purpurea = experiment: Post-emergence herbicidal action; details: for pest or weed control at 5 g/ha / pest or weed control at 20 g/ha: Ipomoea purpurea, 504 h, read-out: Pharbitis purpurea (efficacy in %)
Procedure: as §1

Polygonum convolvulus = experiment: Post-emergence herbicidal action; details: Fallopia convolvulus, 504 h, read-out: Polygonum convolvulus (efficacy in %); for pest or weed control at 20 g/ha: application rate 20 g/ha
Procedure: as §1

Setaria viridis = experiment: Post-emergence herbicidal action; details: 504 h, read-out: Setaria viridis (efficacy in %); for pest or weed control at 5 g/ha: application rate 5 g/ha; for pest or weed control at 20 g/ha: application rate 20 g/ha
Procedure: as §1

Veronica persica = experiment: Post-emergence herbicidal action; details: for pest or weed control at 5 g/ha / pest or weed control at 20 g/ha: Veronica persica, 504 h, read-out: Veronica persica (efficacy in %)
Procedure: as §1

Viola tricolor = experiment: Post-emergence herbicidal action; details: for pest or weed control at 5 g/ha / pest or weed control at 20 g/ha: Viola tricolor, 504 h, read-out: Viola tricolor (efficacy in %)
Procedure: as §1

Oryza sativa = experiment: Post-emergence crop plant compatibility
Procedure: as §1, with “plants.” for “plants. Tables A1 to A14 below show the effects of selected compounds of the general formula (I) according to Tables I.1 to I.34 on various harmful plants and at an application rate corresponding to 20 g/ha and less, which were obtained by the experimental procedure mentioned above.”
(§2) Here, the observed effects on selected crop plants are stated in comparison to the untreated controls (values in %).

Triticum aestivum = experiment: Post-emergence crop plant compatibility
Procedure: as §1, with “plants.” for “plants. Tables A1 to A14 below show the effects of selected compounds of the general formula (I) according to Tables I.1 to I.34 on various harmful plants and at an application rate corresponding to 20 g/ha and less, which were obtained by the experimental procedure mentioned above.”
as §2

Zea mays = experiment: Post-emergence crop plant compatibility; details: application rate 5 g/ha
Procedure: as §1, with “plants.” for “plants. Tables A1 to A14 below show the effects of selected compounds of the general formula (I) according to Tables I.1 to I.34 on various harmful plants and at an application rate corresponding to 20 g/ha and less, which were obtained by the experimental procedure mentioned above.”
as §2

Avena fatua = experiment: Post-emergence herbicidal action; details: application rate 20 g/ha
Procedure: as §1

Structure (SMILES)	pest or weed control at 5 g/ha (Abutilon theophrasti; application rate 5 g/ha)	pest or weed control at 20 g/ha (Abutilon theophrasti; application rate 20 g/ha)	Alopecurus myosuroides (efficacy in %) (Alopecurus myosuroides; application rate 5 g/ha)	Alopecurus myosuroides (efficacy in %) (Alopecurus myosuroides; application rate 20 g/ha)	pest or weed control at 5 g/ha (Amaranthus retroflexus; application rate 5 g/ha)	pest or weed control at 20 g/ha (Amaranthus retroflexus; application rate 20 g/ha)	pest or weed control at 20 g/ha (Digitaria sanguinalis)	pest or weed control at 5 g/ha (Echinochloa crus-galli; application rate 5 g/ha)	pest or weed control at 20 g/ha (Echinochloa crus-galli; application rate 20 g/ha)	pest or weed control at 5 g/ha (Matricaria inodora)	pest or weed control at 20 g/ha (Matricaria inodora; application rate 20 g/ha)	pest or weed control at 5 g/ha (Pharbitis purpurea; application rate 5 g/ha)	pest or weed control at 20 g/ha (Pharbitis purpurea; application rate 20 g/ha)	pest or weed control at 20 g/ha (Polygonum convolvulus)	pest or weed control at 5 g/ha (Veronica persica; application rate 5 g/ha)	pest or weed control at 20 g/ha (Veronica persica; application rate 20 g/ha)	pest or weed control at 5 g/ha (Viola tricolor; application rate 5 g/ha)	pest or weed control at 20 g/ha (Viola tricolor; application rate 20 g/ha)	Oryza sativa (efficacy in %) (Oryza sativa; application rate 5 g/ha)	Triticum aestivum (efficacy in %) (Triticum aestivum; application rate 1.25 g/ha)	also measured
CCCCOC(=O)COc1ncccc1Sc1cc(-n2c(=O)cc(C(F)(F)F)n(N)c2=O)c(F)cc1Cl [I.1-447, n-Butyl {[3-({5-[3-amino-2,6-dioxo-4-(trifluoromethyl)-3,6-dihydropyrimidin-1(2H)-yl]-2-chloro-4-fluorophenyl}sulfanyl)pyridin-2-yl]oxy}acetate]	100%	100%	80%	90%	100%	100%	100%	100%	100%	100%	100%	100%	100%	100%	100%	100%	100%	100%	10%	10%	pest or weed control at 5 g/ha (Digitaria sanguinalis; application rate 5 g/ha): 100%; pest or weed control at 5 g/ha (Polygonum convolvulus; application rate 5 g/ha): 100%; pest or weed control at 5 g/ha (Setaria viridis): 100%; pest or weed control at 20 g/ha (Setaria viridis): 100%; Oryza sativa (efficacy in %) (Oryza sativa; application rate 1.25 g/ha): 0%
CCCCCOC(=O)COc1ncccc1Sc1cc(-n2c(=O)cc(C(F)(F)F)n(N)c2=O)c(F)cc1Cl [I.1-448, n-Pentyl {[3-({5-[3-amino-2,6-dioxo-4-(trifluoromethyl)-3,6-dihydropyrimidin-1(2H)-yl]-2-chloro-4-fluorophenyl}sulfanyl)pyridin-2-yl]oxy}acetate]	80%	80%			100%	100%	100%						100%	100%	80%	80%	100%	100%	0%	0%	pest or weed control at 5 g/ha (Setaria viridis): 80%; pest or weed control at 20 g/ha (Setaria viridis): 100%; Triticum aestivum (efficacy in %) (Triticum aestivum; application rate 5 g/ha): 10%; Zea mays (efficacy in %) (Zea mays): 20%
COCCOCCOC(=O)COc1ncc(F)cc1Sc1cc(-n2c(=O)cc(C(F)(F)F)n(N)c2=O)c(F)cc1Cl [I.31-23, 2-(2-Methoxyethoxy)ethyl {[3-({5-[3-amino-2,6-dioxo-4-(trifluoromethyl)-3,6-dihydropyrimidin-1(2H)-yl]-2-chloro-4-fluorophenyl}sulfanyl)-5-fluoropyridin-2-yl]oxy}acetate]	100%	100%		100%	100%	100%		80%	100%	100%	100%	100%	100%		100%	100%	100%	100%	20%		Avena fatua (efficacy in %) (Avena fatua): 80%
CCOC(=O)COc1ncc(F)cc1Sc1cc(-n2c(=O)cc(C(F)(F)F)n(N)c2=O)c(F)cc1Cl [I.31-442]			80%	90%															10%	10%	Abutilon theophrasti (efficacy in %) (Abutilon theophrasti; application rate 5 g/ha): 100%; Abutilon theophrasti (efficacy in %) (Abutilon theophrasti; application rate 20 g/ha): 100%; Amaranthus retroflexus (efficacy in %) (Amaranthus retroflexus; application rate 5 g/ha): 100%; Amaranthus retroflexus (efficacy in %) (Amaranthus retroflexus; application rate 20 g/ha): 100%; Echinochloa crus-galli (efficacy in %) (Echinochloa crus-galli; application rate 5 g/ha): 90%; Echinochloa crus-galli (efficacy in %) (Echinochloa crus-galli; application rate 20 g/ha): 90%; Matricaria inodora (efficacy in %) (Matricaria inodora; application rate 20 g/ha): 100%; Pharbitis purpurea (efficacy in %) (Pharbitis purpurea; application rate 5 g/ha): 80%; Pharbitis purpurea (efficacy in %) (Pharbitis purpurea; application rate 20 g/ha): 100%; Veronica persica (efficacy in %) (Veronica persica; application rate 5 g/ha): 100%; Veronica persica (efficacy in %) (Veronica persica; application rate 20 g/ha): 100%; Viola tricolor (efficacy in %) (Viola tricolor; application rate 5 g/ha): 100%; Viola tricolor (efficacy in %) (Viola tricolor; application rate 20 g/ha): 100%; Oryza sativa (efficacy in %) (Oryza sativa; application rate 1.25 g/ha): 0%; Triticum aestivum (efficacy in %) (Triticum aestivum; application rate 5 g/ha): 20%
